Test results: patent publication US7605154B2, “Substituted Thiazolo [4,5-d]pyrimidines as protein kinase inhibitors” (Janssen Pharmaceutica N.V., priority 2005, dated 2009)
Several values for one entry are separate records, joined by “and”; a condition that tells them apart may be missing. Identical values can stand only once. Blank lines part the entries; values can stand above or below the molecule they belong to.

Experiments:
EGFR = target: T1, EGFR (Homo sapiens, UniProt P00533); test: EGFR Kinase Assay; assay type: biochemical; details: GST-EGFR, 5 μM ATP
T1 construct: started at nucleotide 2189 (corresponding to amino acid 667) and ended at the termination codon; made in house; host or cells: Sf9 insect cells (baculovirus)
Summary of the method: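 Baculovirus/Sf9-expressed GST-EGFR with biotinylated polyGluTyr substrate, 5 μM ATP plus γ-33P-ATP, in 50 mM Tris pH 8.0, 10 mM MgCl2, 0.1 mM vanadate, 1 mM DTT; 1 h at 30 °C.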

SK-OV-3 [1] = test: Cell Proliferation Inhibition Assay (14C-thymidine incorporation), SK-OV-3; assay type: cell-based; details: Homo sapiens
Procedure: (§1) The ability of a test compound to inhibit unregulated cell proliferation may be determined by measuring incorporation of ^14C-labelled thymidine into newly synthesized DNA within cell lines derived from carcinomas originating from several tissues. Accordingly, the anti-proliferative effect of a compound on cells with a variety of phenotypes may be determined.
The carcinoma cells are trypsinized and counted. The cells (3000-8000 count) are added to each well of a 96-well CytoStar tissue culture treated scintillating microplate (Amersham #RPNQ0160) in complete medium (100 μL) and the plate is then incubated in complete medium for 24 hrs at 37° C. in an inert atmosphere containing 5% CO2. Test compound (1 μL) in 100% DMSO is added to the plate test-wells with DMSO only added to control-wells.
The plate contents are then discarded, the plate is washed twice with PBS (200 μL) and then PBS (200 μL) is added to each well. The plate is sealed and the degree of methyl ^14C-thyrnidine incorporation is quantified on a Packard Top Count.

HeLa = test: Cell Proliferation Inhibition Assay (14C-thymidine incorporation), HeLa; assay type: cell-based; details: Homo sapiens
From the text: as §1
(§2) Carcinoma cell lines include those such as HeLa cervical adenocarcinoma (American Type Culture Collection (ATCC), Virginia, Cat. #CCL-2), A375 malignant melanoma (ATCC CRL-1619), SK-OV-3 ovarian adenocarcinoma (ATCC HTB-77), HCT-116 colon carcinoma (CCL-247), PC-3 prostate adenocarcinoma (ATCC CRL-1435), and MDA-MB-231 (Xenogen Corp.)
(§3) The carcinoma cells are trypsinized and counted. […]
(§4) An aliquot of a solution of Methyl ^14C-thymidine (56 mC/mmol) (NEN #NEC568 or Amersham #CFA532) and complete medium (20 uL to provide 0.2 μCi/well) is then added to each well and the plate is incubated for a third 24 hr period at 37° C. in an atmosphere containing 5% CO2. […] The plate is sealed and the degree of methyl ^14C-thyrnidine incorporation is quantified on a Packard Top Count.

A375 = test: Cell Proliferation Inhibition Assay (14C-thymidine incorporation), A375; assay type: cell-based; details: Homo sapiens, A-375
From the text: as §1, §2, §3, §4

SK-OV-3 [2] = test: SK-OV-3 Cell Migration Inhibition; assay type: cell-based; details: several values in a cell are repeat determinations
HCT-116 = test: Cell Proliferation Inhibition Assay (14C-thymidine incorporation), HCT-116; assay type: cell-based; details: Homo sapiens
From the text: as §1, §2, §3, §4

c-Src kinase = target: T2, c-Src kinase (Homo sapiens, UniProt P12931); test: c-Src Kinase Assay; assay type: biochemical; details: test concentration of 1 μM
T2 construct: purchased Upstate Biotechnology, Lake Placid, N.Y
Procedure: A mixure of a 10× kinase buffer (80 mM MOPS at pH 7.0, 2 mM EDTA and 100 mM Magnesium Chloride), ATP (5 μM final from a 10 mM stock), a Cdc2 peptide […] (100 μM final from a 2.5 mM stock), γ-^33P ATP (10 μCi/μL stock) and water (20 μL/well) was added to each well of a Streptavidin Flashplate.
Test compound in 100% DMSO (0.5 μL) was added to the appropriate wells. Diluted c-Src kinase (human) (Upstate Biotechnology, Lake Placid, N.Y.) (diluted in a buffer consisting of 20 mM MOPS at pH 7.0, 1 mM EDTA, β-mercaptoethanol (0.1%), Brij-35 (0.01%), glycerol (5%), and 1 mg/mL bovine serum albumin) (2.5 μL) was added to the wells to initiate the reactions. The reaction plates were incubated at 30° C. for 40 min. The reaction was terminated by the addition of a 3% phosphoric acid solution (5 μL). The reaction product (10 μL) was spotted onto a P30 filtermat and washed for 5 minutes in phosphoric acid (75 mM). The wash sequence was repeated two more times, followed with one final wash in methanol. The plates were then dried, sealed and read on the TopCount scintillation counter after adding 30 μL scintillation fluid.
Percent inhibition was derived according to the procedure described in Example 5. The results for those compounds tested are shown in Table 2 at a test concentration of 1 μM.

Lyn kinase = target: T3, Lyn kinase (Homo sapiens, UniProt P07948); test: Lyn Kinase Assay; assay type: biochemical; details: test concentration of 1 μM
T3 construct: purchased Upstate biotechnology, Lake Placid, N.Y
Procedure: A mixture of a 10× kinase buffer (500 mM MOPS at pH 7.5, 1 mM EGTA, 1 mM Sodium Vanadate, 1% β-mercaptoethanol and 100 mM Magnesium Acetate), ATP (5 μM final from a 10 mM stock), polyGluTyr (0.1 mg/mL final from a 1 mg/mL stock), γ-^33P ATP (10 μCi/μL stock) and water (20 μL/well) was added to each well of a Streptavidin Flashplate.
Test compound in 100% DMSO (0.5 μL) was added to the appropriate wells. Diluted Lyn kinase (human) (Upstate biotechnology, Lake Placid, N.Y) (diluted in a buffer consisting of 50 mM Tris at pH 7.5, 0.1 mM EGTA, Sodium Vanadate (0.1 mM), β-mercaptoethanol (0.1%) and 1 mg/mL bovine serum albumin) (2.5 μL) was added to the wells to initiate the reactions.
The reaction plates were incubated at 30° C. for 40 min. The reaction was terminated by the addition of a 3% phosphoric acid solution (5 μL). The reaction product (10 μL) was spotted onto a P30 filtermat and washed for 5 minutes in phosphoric acid (75 mM). The wash sequence was repeated two more times, followed with one final wash in methanol. The plates were then dried, sealed and read on the TopCount scintillation counter after adding 30 μL scintillation fluid.
Percent inhibition was derived according to the procedure described in Example 5. The results for those compounds tested are shown in Table 3 at a test concentration of 1 μM.

c-Abl kinase = target: T4, c-Abl kinase (Homo sapiens, UniProt P00519); test: c-Abl Kinase Assay; assay type: biochemical; details: test concentration of 1 μM; read-out: c-Abl percent inhibition
T4 construct: purchased Upstate Biotechnology, Lake Placid, N.Y
Procedure: A mixture of a 10× kinase buffer (80 mM MOPS at pH 7.0, 2 mM EDTA and 100 mM Magnesium Acetate), ATP (5 μM final from a 10 mM stock), a peptide […] (50 μM final from a 0.5 mM stock), γ-^33P ATP (10 μCi/μL stock) and water is added to each well (20 μl/well) of a Streptavidin Flashplate.
Test compound in 100% DMSO (0.5 μL) is added to the appropriate wells. Diluted c-Abl kinase (human) (Upstate Biotechnology, Lake Placid, N.Y.) (diluted in a buffer consisting of 20 mM MOPS at pH 7.0, 1 mM EDTA, β-mercaptoethanol (0.1%), Brij-35 (0.01%), glycerol (5%) and 1 mg/ml bovine serum albumin) (2.5 μL) is added to the wells to initiate the reactions.
The reaction plates are incubated at 30° C. for 40 min. The reaction is terminated by the addition of a 3% phosphoric acid solution (5 μL). The reaction product (10 μL) is spotted onto a P30 filtermat and is washed for 5 minutes in phosphoric acid (75 mM). The wash sequence is repeated two more times and is followed with one final wash in methanol. The plates are then dried, sealed and read on the TopCount scintillation counter after 30 μL scintillation fluid is added.
The 1% percent inhibition value for Compound 64 was derived according to the procedure described in Example 5 at a test concentration of 1 μM.

HER-2 = target: T5, HER-2 (Homo sapiens, UniProt P04626); test: HER-2 Kinase Assay; assay type: biochemical; details: GST-HER2, 1 μM ATP
T5 construct: the nucleotides encoding amino acids 679 to 1255 of HER-2; HIS6-Thrombin (His6 tag with thrombin site) (N); purchased Proqinase (Freiburg, Germany)
Procedure: The HER-2 kinase used was purified at Proqinase (Freiburg, Germany) from a construct that consisted of a fusion of GST (Glutathione-S-Transferase), HIS6-Thrombin and the nucleotides encoding amino acids 679 to 1255 of HER-2.
A mixture of a 10× kinase reaction buffer (600 mM Hepes at pH 7.5, 30 mM Magnesium Chloride, 0.03 mM Sodium Vanadate and […] PEG 20,000), DTT (1.2 mM final from a 10 mM stock), ATP (1 μM from a 10 mM stock), biotinylated polyGluTyr (1.5 ng/μL final from stock of 1 μg/μL prepared by Upstate Biotechnologies, Lake Placid, N.Y.), Manganese Chloride (3 mM final from a 1 M stock), γ-^33P-ATP (10 μCi/μL stock) and water (70 μL/well) was added to each well of a Streptavidin Flashplate (Cat. # SMP103, NEN, Boston, Mass.).
Test compound stock (1 μL) was added to the appropriate wells. Diluted GSTHER2 kinase (6.7 ng/μL diluted into 50 mM Tris-HCl at pH 8.0 and 0.1% bovine serum albumin) (30 μL) was added (total volume of 200 ng/well) to initiate the reactions.
The reaction plates were incubated at 30° C. for 1 hr. The reaction was terminated by aspirating the reaction mixture from the plate wells and washing the wells three times with a 1×PBS stop buffer (300 μL) and 100 mM EDTA. After the final wash, the same stop buffer (200 μL) was again added to the wells. The plates were then sealed and read on the TopCount scintillation counter. […]

T1 sequence (P00533 667-1210 limits assumed): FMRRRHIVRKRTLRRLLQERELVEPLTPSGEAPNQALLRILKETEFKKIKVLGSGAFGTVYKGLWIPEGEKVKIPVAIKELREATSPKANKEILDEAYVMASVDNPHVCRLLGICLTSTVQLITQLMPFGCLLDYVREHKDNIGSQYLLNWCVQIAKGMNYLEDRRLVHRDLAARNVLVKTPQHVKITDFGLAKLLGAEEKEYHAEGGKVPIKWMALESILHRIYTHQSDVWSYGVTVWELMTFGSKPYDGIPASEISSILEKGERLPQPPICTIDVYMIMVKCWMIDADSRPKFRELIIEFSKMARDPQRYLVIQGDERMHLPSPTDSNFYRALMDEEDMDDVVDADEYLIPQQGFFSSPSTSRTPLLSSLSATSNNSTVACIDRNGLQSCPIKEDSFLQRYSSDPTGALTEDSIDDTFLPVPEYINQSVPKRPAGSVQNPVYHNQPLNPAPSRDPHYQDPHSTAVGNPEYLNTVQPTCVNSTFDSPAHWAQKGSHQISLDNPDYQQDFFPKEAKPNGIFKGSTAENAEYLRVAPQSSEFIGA
T5 sequence (P04626 679-1255): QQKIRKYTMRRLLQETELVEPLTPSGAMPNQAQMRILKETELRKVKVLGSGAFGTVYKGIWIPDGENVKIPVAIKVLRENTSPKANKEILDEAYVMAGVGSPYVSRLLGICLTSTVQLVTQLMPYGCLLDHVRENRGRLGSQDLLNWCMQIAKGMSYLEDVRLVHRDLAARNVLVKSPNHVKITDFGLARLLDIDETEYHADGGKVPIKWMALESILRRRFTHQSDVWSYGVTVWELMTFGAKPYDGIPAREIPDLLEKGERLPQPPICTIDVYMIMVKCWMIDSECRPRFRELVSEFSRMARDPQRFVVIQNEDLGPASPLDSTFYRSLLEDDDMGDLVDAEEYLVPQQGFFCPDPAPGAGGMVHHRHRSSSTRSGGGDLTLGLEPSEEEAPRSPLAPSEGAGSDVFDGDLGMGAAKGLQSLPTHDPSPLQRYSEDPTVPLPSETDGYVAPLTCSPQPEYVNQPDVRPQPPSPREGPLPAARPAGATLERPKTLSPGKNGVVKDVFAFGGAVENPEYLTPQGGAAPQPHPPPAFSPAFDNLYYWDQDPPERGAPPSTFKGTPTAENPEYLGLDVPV
T3 sequence (P07948 whole entry): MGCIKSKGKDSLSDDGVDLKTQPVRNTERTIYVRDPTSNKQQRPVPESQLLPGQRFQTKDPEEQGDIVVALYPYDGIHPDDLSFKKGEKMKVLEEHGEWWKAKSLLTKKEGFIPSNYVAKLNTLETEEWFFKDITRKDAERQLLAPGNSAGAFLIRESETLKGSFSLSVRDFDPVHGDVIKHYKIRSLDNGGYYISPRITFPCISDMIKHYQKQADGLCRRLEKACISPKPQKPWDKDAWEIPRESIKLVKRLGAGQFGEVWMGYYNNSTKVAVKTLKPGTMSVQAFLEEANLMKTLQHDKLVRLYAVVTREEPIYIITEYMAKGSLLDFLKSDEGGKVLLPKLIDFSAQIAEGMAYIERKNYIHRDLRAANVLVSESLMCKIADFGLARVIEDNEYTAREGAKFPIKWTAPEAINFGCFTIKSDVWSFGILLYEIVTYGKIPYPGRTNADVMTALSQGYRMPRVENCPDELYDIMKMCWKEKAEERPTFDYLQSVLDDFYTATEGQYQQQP
T2 sequence (P12931 whole entry): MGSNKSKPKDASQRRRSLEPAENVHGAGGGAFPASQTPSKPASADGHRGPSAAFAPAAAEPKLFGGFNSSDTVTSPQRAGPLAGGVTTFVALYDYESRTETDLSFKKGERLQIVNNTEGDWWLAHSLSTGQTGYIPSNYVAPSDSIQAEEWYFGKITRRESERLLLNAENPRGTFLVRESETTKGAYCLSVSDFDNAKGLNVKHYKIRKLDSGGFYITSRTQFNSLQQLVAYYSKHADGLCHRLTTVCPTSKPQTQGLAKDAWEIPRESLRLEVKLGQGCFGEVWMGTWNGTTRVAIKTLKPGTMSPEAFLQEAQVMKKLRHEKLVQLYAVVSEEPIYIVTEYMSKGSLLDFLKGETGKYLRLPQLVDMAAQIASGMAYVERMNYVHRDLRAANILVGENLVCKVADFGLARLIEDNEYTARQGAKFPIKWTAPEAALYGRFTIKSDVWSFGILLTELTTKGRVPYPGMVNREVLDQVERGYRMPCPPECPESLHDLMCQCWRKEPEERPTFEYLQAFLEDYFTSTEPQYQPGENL
T4 sequence (P00519 whole entry): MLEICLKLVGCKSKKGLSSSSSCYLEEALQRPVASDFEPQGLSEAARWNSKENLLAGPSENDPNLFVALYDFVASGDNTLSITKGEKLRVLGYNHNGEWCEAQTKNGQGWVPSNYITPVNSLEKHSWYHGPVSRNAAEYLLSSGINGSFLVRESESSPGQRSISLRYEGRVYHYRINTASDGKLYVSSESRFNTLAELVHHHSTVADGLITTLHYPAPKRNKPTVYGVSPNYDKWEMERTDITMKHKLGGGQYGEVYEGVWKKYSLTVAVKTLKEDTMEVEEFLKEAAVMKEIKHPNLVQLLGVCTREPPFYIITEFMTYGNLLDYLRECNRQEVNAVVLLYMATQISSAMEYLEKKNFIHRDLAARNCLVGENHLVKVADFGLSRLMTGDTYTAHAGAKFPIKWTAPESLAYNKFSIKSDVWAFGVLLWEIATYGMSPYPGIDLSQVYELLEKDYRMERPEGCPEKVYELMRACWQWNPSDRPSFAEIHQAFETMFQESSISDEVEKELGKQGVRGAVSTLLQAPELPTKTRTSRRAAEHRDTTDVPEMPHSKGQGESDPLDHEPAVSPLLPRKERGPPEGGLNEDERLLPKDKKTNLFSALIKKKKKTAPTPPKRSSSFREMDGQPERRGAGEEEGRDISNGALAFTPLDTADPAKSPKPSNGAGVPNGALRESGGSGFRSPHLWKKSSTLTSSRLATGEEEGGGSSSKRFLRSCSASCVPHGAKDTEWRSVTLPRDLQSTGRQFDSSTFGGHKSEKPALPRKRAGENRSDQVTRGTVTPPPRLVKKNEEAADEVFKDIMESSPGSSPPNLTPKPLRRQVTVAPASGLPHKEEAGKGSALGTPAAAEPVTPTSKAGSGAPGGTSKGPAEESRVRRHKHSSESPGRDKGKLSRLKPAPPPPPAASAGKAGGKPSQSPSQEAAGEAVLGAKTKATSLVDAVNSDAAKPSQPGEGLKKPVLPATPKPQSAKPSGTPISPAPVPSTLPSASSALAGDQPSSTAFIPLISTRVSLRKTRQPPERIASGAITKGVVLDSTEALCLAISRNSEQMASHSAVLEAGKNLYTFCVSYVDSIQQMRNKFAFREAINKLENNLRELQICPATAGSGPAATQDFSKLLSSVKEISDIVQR

IC50 (EGFR): 8.9 nM
IC50 (SK-OV-3 [1]): 490 nM
Compound: Fc1ccc(Nc2ncnc3nc(Nc4ccc(CN5CCCCC5)cc4)sc23)cc1Cl [Cpd 2, N^7-(3-chloro-4-fluoro-phenyl)-N^2-(4-piperidin-1-ylmethyl-phenyl)-thiazolo[4,5-d]pyrimidine-2,7-diamine]

IC50 (EGFR): 12.8 nM
IC50 (SK-OV-3 [1]): 600 nM
Compound: CN(C)CCc1ccc(Nc2nc3ncnc(Nc4ccc(F)c(Cl)c4)c3s2)cc1 [Cpd 11, N^7-(3-chloro4-fluoro-phenyl)-N^2-[4-(2-dimethylamino-ethyl)-phenyl]-thiazolo[4,5-d]pyrimidine-2,7-diamine]

IC50 (EGFR): 4.2 nM
IC50 (SK-OV-3 [1]): 620 nM
Compound: Fc1ccc(Nc2ncnc3nc(Nc4ccc(CN5CCCC5)cc4)sc23)cc1Cl [Cpd 17, N^7-(3-chloro-4-fluoro-phenyl)-N^2-(4-pyrrolidin-1-ylmethyl-phenyl)-thiazolo[4,5-d]pyrimidine-2,7-diamine]

IC50 (EGFR): 15.4 nM
IC50 (HeLa): > 100000 nM
IC50 (A375): > 100000 nM
IC50 (SK-OV-3 [2]; Homo sapiens, SK-OV-3, SK-OV-3 migration): 186 nM
IC50 (SK-OV-3 [2]; SK-OV-3 migration): 156 nM and 141 nM
IC50 (HCT-116): > 100000 nM
Compound: Fc1ccc(Nc2ncnc3nc(Nc4ccc(CN5CCOCC5)cc4)sc23)cc1Cl [Cpd 18, N^7-(3-chloro-4-fluoro-phenyl)-N^2-(4-morpholin-4-ylmethyl-phenyl)-thiazolo[4,5-d]pyrimidine-2,7-diamine]

IC50 (EGFR): 3.96 nM
inhibition at 1 µM (c-Src kinase): 21%
inhibition at 1 µM (Lyn kinase): 17%
inhibition at 1 µM (c-Abl kinase): 1%
Compound: C#Cc1cccc(Nc2ncnc3nc(Nc4ccc(CNC[C@H]5CCCO5)cc4)sc23)c1 [Cpd 64, N^7-(3-ethynyl-phenyl)-N^2-(4-{[(2R)-(tetrahydro-furan-2-ylmethyl)-amino]-methyl}-phenyl)-thiazolo[4,5-d]pyrimidine-2,7-diamine]

IC50 (EGFR): 7.28 nM
inhibition at 1 µM (c-Src kinase): 15%
inhibition at 1 µM (Lyn kinase): 25%
Compound: C#Cc1cccc(Nc2ncnc3nc(Nc4ccc(CNCC(O)CO)cc4)sc23)c1 (centres unmarked) [Cpd 66, 3-{4-[7-(3-ethynyl-phenylamino)-thiazolo[4,5-d]pyrimidin-2-ylamino]-benzylamino}-propane-1,2-diol]

IC50 (EGFR): 20.3 nM
IC50 (HER-2): 276 nM
IC50 (HeLa): 2190 nM
IC50 (A375): 2030 nM
IC50 (HCT-116): 3080 nM
Compound: CN1CCN(Cc2ccc(Nc3nc4ncnc(Nc5ccc(OCc6cccc(F)c6)c(Cl)c5)c4s3)cc2)CC1 [Cpd 68, N^7-[3-chloro-4-(3-fluoro-benzyloxy)-phenyl]-N^2-[4-(4-methyl-piperazin-1-ylmethyl)-phenyl]-thiazolo[4,5-d]pyrimidine-2,7-diamine]

IC50 (EGFR): 319 nM
IC50 (HER-2): 1870 nM
Compound: CN1CCN(Cc2ccc(Nc3nc4ncnc(Nc5ccc(Oc6ccccc6)cc5)c4s3)cc2)CC1 [Cpd 94, N^2-[4-(4-methyl-piperazin-1-ylmethyl)-phenyl]-N^7-(4-phenoxy-phenyl)-thiazolo[4,5-d]pyrimidine-2,7-diamine]
